Measured values published in ChEMBL document CHEMBL3885881, “DrugMatrix”.

Organism: Rattus norvegicus
Format: toxicity, organism-based, Sprague-Dawley
Conditions: in vivo, po, route oral GAVAGE, […]; for ABSOLUTE EOSINOPHIL / ABSOLUTE LYMPHOCYTE / ABSOLUTE MONOCYTE / ABSOLUTE SEGMENTED NEUTROPHIL / BASOPHIL / EOSINOPHIL / ERYTHROCYTE COUNT / HEMATOCRIT / HEMOGLOBIN / LEUKOCYTE COUNT / LYMPHOCYTE / MEAN CORPUSCULAR HEMOGLOBIN / MEAN CORPUSCULAR HEMOGLOBIN CONCENTRATION / MEAN CORPUSCULAR VOLUME / MONOCYTE / NEUTROPHIL / NUCLEATED RED BLOOD CELLS / PLATELET COUNT: tissue Blood; for ALANINE AMINOTRANSFERASE / ALBUMIN / ALKALINE PHOSPHATASE / ASPARTATE AMINOTRANSFERASE / BLOOD UREA NITROGEN / CARBON DIOXIDE / CHLORIDE / CHOLESTEROL / CREATINE PHOSPHOKINASE / CREATININE / GLUCOSE / LACTATE DEHYDROGENASE / LIPASE / PHOSPHORUS / POTASSIUM / SODIUM / TOTAL BILIRUBIN / TOTAL PROTEIN / URIC ACID: tissue Plasma
[1] = 400 mg/kg, 24 h, dose level Low, time 1 day
[2] = 1175 mg/kg, 6 h, dose level High, time 0.25 day
[3] = 1175 mg/kg, 24 h, dose level High, time 1 day

Description: DrugMatrix - Regimen: Single

## ClC(Cl)(Cl)Cl [CARBON TETRACHLORIDE]
[1]
  ABSOLUTE EOSINOPHIL: 0 CELLS/uL
  ABSOLUTE LYMPHOCYTE: 6780.67 CELLS/uL
  ABSOLUTE MONOCYTE: 96.83 CELLS/uL
  ABSOLUTE SEGMENTED NEUTROPHIL: 789.17 CELLS/uL
  BASOPHIL: 0%
  EOSINOPHIL: 0%
  ERYTHROCYTE COUNT: 5.7 x10E6/uL
  HEMATOCRIT: 35.63%
  HEMOGLOBIN: 14.05 G/DL
  LEUKOCYTE COUNT: 7.67 x10E3/uL
  LYMPHOCYTE: 88%
  MEAN CORPUSCULAR HEMOGLOBIN: 24.7 pg
  MEAN CORPUSCULAR HEMOGLOBIN CONCENTRATION: 39.43 G/DL
  MEAN CORPUSCULAR VOLUME: 62.67 fL
  MONOCYTE: 1.17%
  NEUTROPHIL: 10.83%
  NUCLEATED RED BLOOD CELLS: 0 /100WBC
  PLATELET COUNT: 966 x10E3/uL
  ALANINE AMINOTRANSFERASE: 129.17 u/L
  ALBUMIN: 4.17 G/DL
  ALKALINE PHOSPHATASE: 338.17 u/L
  ASPARTATE AMINOTRANSFERASE: 420.5 u/L
  BLOOD UREA NITROGEN: 16.33 mg/dL
  CARBON DIOXIDE: 34.33 mmol/L
  CHLORIDE: 98.5 MEQ/L
  CHOLESTEROL: 58 mg/dL
  CREATINE PHOSPHOKINASE: 252 u/L
  CREATININE: 0.29 mg/dL
  GLUCOSE: 127.33 mg/dL
  LACTATE DEHYDROGENASE: 240.17 u/L
  LIPASE: 9.83 u/L
  PHOSPHORUS: 9.37 mg/dL
  POTASSIUM: 5.7 MEQ/L
  SODIUM: 144.08 MEQ/L
  TOTAL BILIRUBIN: 0.22 mg/dL
  TOTAL PROTEIN: 6.3 G/DL
  URIC ACID: 0.53 mg/dL
[2]
  ABSOLUTE EOSINOPHIL: 83.17 CELLS/uL
  ABSOLUTE LYMPHOCYTE: 9204 CELLS/uL
  ABSOLUTE MONOCYTE: 323.67 CELLS/uL
  ABSOLUTE SEGMENTED NEUTROPHIL: 4922.5 CELLS/uL
  BASOPHIL: 0%
  EOSINOPHIL: 0.5%
  ERYTHROCYTE COUNT: 5.84 x10E6/uL
  HEMATOCRIT: 39.2%
  HEMOGLOBIN: 14.45 G/DL
  LEUKOCYTE COUNT: 14.53 x10E3/uL
  LYMPHOCYTE: 63.5%
  MEAN CORPUSCULAR HEMOGLOBIN: 24.75 pg
  MEAN CORPUSCULAR HEMOGLOBIN CONCENTRATION: 36.87 G/DL
  MEAN CORPUSCULAR VOLUME: 67.08 fL
  MONOCYTE: 2%
  NEUTROPHIL: 34%
  NUCLEATED RED BLOOD CELLS: 0.17 /100WBC
  PLATELET COUNT: 1289.67 x10E3/uL
  ALANINE AMINOTRANSFERASE: 157 u/L
  ALBUMIN: 4.5 G/DL
  ALKALINE PHOSPHATASE: 379.83 u/L
  ASPARTATE AMINOTRANSFERASE: 369 u/L
  BLOOD UREA NITROGEN: 14.83 mg/dL
  CARBON DIOXIDE: 21 mmol/L
  CHLORIDE: 97.83 MEQ/L
  CHOLESTEROL: 59.17 mg/dL
  CREATINE PHOSPHOKINASE: 433.5 u/L
  CREATININE: 0.14 mg/dL
  GLUCOSE: 128.33 mg/dL
  LACTATE DEHYDROGENASE: 1251.5 u/L
  LIPASE: 9.83 u/L
  PHOSPHORUS: 13.47 mg/dL
  POTASSIUM: 5.85 MEQ/L
  SODIUM: 140.9 MEQ/L
  TOTAL BILIRUBIN: 0.32 mg/dL
  TOTAL PROTEIN: 5.88 G/DL
  URIC ACID: 2.1 mg/dL
[3]
  ABSOLUTE EOSINOPHIL: 28.67 CELLS/uL
  ABSOLUTE LYMPHOCYTE: 8687.33 CELLS/uL
  ABSOLUTE MONOCYTE: 78.33 CELLS/uL
  ABSOLUTE SEGMENTED NEUTROPHIL: 1872.33 CELLS/uL
  BASOPHIL: 0%
  EOSINOPHIL: 0.33%
  ERYTHROCYTE COUNT: 5.91 x10E6/uL
  HEMATOCRIT: 37.1%
  HEMOGLOBIN: 14.7 G/DL
  LEUKOCYTE COUNT: 10.67 x10E3/uL
  LYMPHOCYTE: 81%
  MEAN CORPUSCULAR HEMOGLOBIN: 24.93 pg
  MEAN CORPUSCULAR HEMOGLOBIN CONCENTRATION: 39.62 G/DL
  MEAN CORPUSCULAR VOLUME: 62.85 fL
  MONOCYTE: 0.83%
  NEUTROPHIL: 17.83%
  NUCLEATED RED BLOOD CELLS: 0 /100WBC
  PLATELET COUNT: 912.17 x10E3/uL
  ALANINE AMINOTRANSFERASE: 544.67 u/L
  ALBUMIN: 4.05 G/DL
  ALKALINE PHOSPHATASE: 371.33 u/L
  ASPARTATE AMINOTRANSFERASE: 3091.33 u/L
  BLOOD UREA NITROGEN: 15.5 mg/dL
  CARBON DIOXIDE: 33.83 mmol/L
  CHLORIDE: 98.33 MEQ/L
  CHOLESTEROL: 55 mg/dL
  CREATINE PHOSPHOKINASE: 312.83 u/L
  CREATININE: 0.32 mg/dL
  GLUCOSE: 129.83 mg/dL
  LACTATE DEHYDROGENASE: 4392.83 u/L
  LIPASE: 10 u/L
  PHOSPHORUS: 9.72 mg/dL
  POTASSIUM: 5.12 MEQ/L
  SODIUM: 144.23 MEQ/L
  TOTAL BILIRUBIN: 0.27 mg/dL
  TOTAL PROTEIN: 6.05 G/DL
  URIC ACID: 0.52 mg/dL
